Reference: US8106085B2, “Indoline-substituted pyrazoline derivatives, their preparation and use as medicaments” (Laboratorios Del Dr. Esteve, S.A., priority 2005, dated 2012)

What was measured:
[1] = molecular target: T1, CB1 receptor (Homo sapiens, UniProt P21554); assay: In-vitro determination of affinity to CB1/CB2 receptors (radioligand [3H]-CP55940); settings: transfected human receptor, binding
T1 construct: purchased Receptor Biology, Inc
Procedure: Pharmacological Data: Pharmacological Methods I. In-Vitro Determination of Affinity to CB1/CB2-Receptors
The in-vitro determination of the affinity of the inventive quaternary ammonium salts of substituted pyrazoline compounds to CB1/CB2-Rezeptors is carried out as described in the publication of Ruth A. Ross, Heather C. Brockie et al., “Agonist-inverse agonist characterization at CB1 and CB2 cannabinoid receptors of L-759633, L759656 and AM630”, British Journal of Pharmacology, 126, 665-672, (1999), whereby the transfected human CB1 and CB2 receptors of Receptor Biology, Inc. are used. The radioligand used for both receptors is [^3H]-CP55940. The respective parts of the description are hereby incorporated by reference and forms part of the present disclosure.
The affinity of the inventive substituted pyrazoline compounds to CB1/CB2 receptors was determined as described above.

[2] = molecular target: recombinant human cannabinoid 1 receptor (CB1) (Homo sapiens, UniProt P21554); assay: [35S]GTPγS binding assay, antagonism against WIN 55,212-2; assay type: biochemical; settings: compound at 1 μM against WIN 55,212-2 dose response; CHO-CB1 membranes; 100% = effect of internal standard CB1-antagonist
Chain of recombinant human cannabinoid 1 receptor (CB1) (P21554 whole entry): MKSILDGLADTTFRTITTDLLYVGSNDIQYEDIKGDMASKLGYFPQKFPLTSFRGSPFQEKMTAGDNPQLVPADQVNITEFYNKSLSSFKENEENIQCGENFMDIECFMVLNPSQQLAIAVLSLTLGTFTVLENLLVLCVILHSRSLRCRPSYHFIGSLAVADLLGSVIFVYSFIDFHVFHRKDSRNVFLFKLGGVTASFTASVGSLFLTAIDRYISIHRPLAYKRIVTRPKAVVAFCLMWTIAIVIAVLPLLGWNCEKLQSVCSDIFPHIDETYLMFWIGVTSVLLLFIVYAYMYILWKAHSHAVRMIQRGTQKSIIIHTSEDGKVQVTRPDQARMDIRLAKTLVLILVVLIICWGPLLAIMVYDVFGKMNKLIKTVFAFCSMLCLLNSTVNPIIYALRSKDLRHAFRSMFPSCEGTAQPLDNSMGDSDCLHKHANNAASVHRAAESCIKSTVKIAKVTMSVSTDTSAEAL
Procedure: The percentage of catalepsy is determined according to the following formula: % Catalepsy=arithmetic mean/6×100 Antagonistic Assay: Materials and Methods. Membrane Preparation:
Chinese hamster ovary (CHO) cells stably expressing recombinant human cannabinoid 1 receptor (CB1) were cultured in nutrient mixture Ham's F 12 supplemented with 10% heat-inactivated fetal bovine serum, 2 mM L-glutamine, 50 U/ml penicillin, 50 U/ml streptomycin and 0.5 mg/ml geneticin. In order to obtain cells, culture flasks were washed twice with phosphate buffered saline and scraped. Then, cells were collected by centrifugation (200×g, 10 min) and stored dry at −80° C. Cells were homogenized in ice-cold 20 mM HEPES, 10 mM EDTA (pH 7.5) and centrifuged at 40,000×g for 15 min at 4° C. The pellet was resuspended in 20 mM HEPES, 0.1 mM EDTA (pH 7.5) and centrifuged for 15 min at 4° C. The final pellet was resuspended in 20 mM HEPES, 0.1 mM EDTA (pH 7.5), and divided in aliquots and stored at −80° C. until use.
[^35S]GTPγS Binding Assay:
The reaction was performed in 96-well plates. Membranes (15 µg protein/well) were incubated for 60 min at 30° C. in buffer (50 mM HEPES, 100 mM KCl, 5 mM MgCl2, 1 mM EDTA, 0.1% wt/vol bovine serum albumin, 5 μM GDP, saponin (10 μg/ml), 0.5 nM [^35S]GTPγS, pH 7.4) with compound at 1 μM final concentration in either the absence or presence of dose response curve of agonist WIN 55,212-2 between 3 nM and 3 μM. The incubation was terminated by rapid filtration through Millipore Multiscreen glass fiber FB, and rinsed two-times with ice-cold assay buffer. Filter plates were dried and 30 μl of scintillation liquid was added. Radioactivity was determined using Wallac Microbeta Trilux. Each experiment was performed at least in duplicate. A WIN 55,212-2 dose-response was systematically performed.
The average of basal [^35S]GTPγS binding was subtracted from all binding data. In order to compare the antagonism results from one screening campaign to another one, the difference between the maximal agonist effect of WIN 55,212-2 alone, and the maximal antagonism effect due to WIN 55,212-2 with an internal standard CB1-antagonist was defined as 100%.

T1 sequence (P21554 whole entry): as above

SMILES: C[C@H]1C(C(=O)NN2CCc3ccccc32)=NN(c2ccc(Cl)cc2Cl)[C@H]1c1ccc(Cl)cc1 [Example 3, (4R,5R)-5-(4-chlorophenyl)-1-(2,4-dichlorophenyl)-N-(indolin-1-yl)-4-methyl-4,5-dihydro-1H-pyrazole-3-carboxamide]
- IC50 [1]: 100 nM
- Antagonism (%) [2]: 70%

SMILES: CC1Cc2ccccc2N1NC(=O)C1=NN(c2ccc(Cl)cc2Cl)[C@@H](c2ccc(Cl)cc2)[C@H]1C (relative stereo) [Example 5, cis-5-(4-chlorophenyl)-1-(2,4-dichlorophenyl)-4-methyl-N-(2-methylindolin-1-yl)-4,5-dihydro-1H-pyrazole-3-carboxamide]
- IC50 [1]: 128 nM
- Antagonism (%) [2]: 16 ± 15%

SMILES: C[C@@H]1C(C(=O)NN2CCc3ccccc32)=NN(c2ccc(Cl)cc2Cl)[C@H]1c1ccc(Br)cc1 (relative stereo) [Example 7, trans-5-(4-bromophenyl)-1-(2,4-dichlorophenyl)-N-(indolin-1-yl)-4-methyl-4,5-dihydro-1H-pyrazole-3-carboxamide]
- IC50 [1]: 39 nM
- Antagonism (%) [2]: 67 ± 3%

SMILES: C[C@H]1C(C(=O)NN2CCc3ccccc32)=NN(c2ccc(Cl)cc2Cl)[C@H]1c1ccc(F)cc1 (relative stereo) [Example 8, cis-1-(2,4-dichlorophenyl)-5-(4-fluorophenyl)-N-(indolin-1-yl)-4-methyl-4,5-dihydro-1H-pyrazole-3-carboxamide]
- Antagonism (%) [2]: 48%
